# From the supplement of paper PMC11208160
# Assay: recombinant barcode read abundance after kanamycin selection (control-corrected) (log10(CPM+1)); higher = more efficient recombination; sequences stand for … in AGTGCAGAGAAAATCGGCCAGTTTTCTCTGCCTGCAGTCCGCATGCCGT…AGATTTATGCAGCGGACTGCCTTTCTCCCAAAGTGATAAACCGGACAGTATCATGGACCGGTTTTCCCGGTAATCCGTATTTGCAAGGTTGGTTTCACT; site = the 11-nt target
# Procedure: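 Pooled E. coli target-specificity screen for the IS621 bridge recombinase. Each library plasmid pairs an 11-nt target (CT core) with a bridge RNA whose target-binding loop (9-nt LTG + 4-nt RTG) is reprogrammed; the rest of the 177-nt WT IS621 bridge RNA scaffold is fixed. The plasmid is co-electroporated with a WT donor plasmid; recombinase is induced with 0.1 mM IPTG and recombinants are selected on kanamycin. Recombinant barcodes are sequenced, converted to CPM, averaged over two biological replicates and corrected by the unselected control CPM. Molecule = full bridge RNA written as DNA: LTG = specificity nt 1-9, RTG = reverse complement of specificity nt 8-11, in the WT scaffold.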
# 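Further: IS621 recombinase and bridge RNA in Escherichia coli cells.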
row,Sequence,recombinant barcode read abundance (log10)
1,AAGCGCTCTTGGGTTCTAACCTGTTGCTG (site AAGCGCTCTCA),2.39
2,AAGCGCTCTTGGGTTCTAACCTGTTGCTG (site TTCTATGCTAC),0.542
3,AAGCGTACTTGGGTTCTAACCTGTTGCCT (site AAGCGTACTAG),1.92
4,AAGCGTACTTGGGTTCTAACCTGTTGCCT (site AAGCGTCCTAG),0.141
5,AAGCGTACTTGGGTTCTAACCTGTTGCCT (site AAGCGTGCTAG),0.0421
6,AAGCGTACTTGGGTTCTAACCTGTTGCCT (site AAGCGTTCTAG),0.128
7,AAGCGTGCTTGGGTTCTAACCTGTTGCCT (site AAGCGTACTAG),1.38
8,AAGCGTGCTTGGGTTCTAACCTGTTGCCT (site AAGCGTCCTAG),0.197
9,AAGCGTGCTTGGGTTCTAACCTGTTGCCT (site AAGCGTGCTAG),1.7
10,AAGCGTGCTTGGGTTCTAACCTGTTGCCT (site AAGCGTTCTAG),0.216
11,AAGCGTTCTTGGGTTCTAACCTGTTGCCT (site AAGCGTACTAG),0.0209
12,AAGCGTTCTTGGGTTCTAACCTGTTGCCT (site AAGCGTCCTAG),0.111
13,AAGCGTTCTTGGGTTCTAACCTGTTGCCT (site AAGCGTGCTAG),0.0909
14,AAGCGTTCTTGGGTTCTAACCTGTTGCCT (site AAGCGTTCTAG),1.54
15,AAGCTGCCTTGGGTTCTAACCTGTTGCCT (site AAGCTGCCTAG),1.49
16,AAGCTGCCTTGGGTTCTAACCTGTTGCCT (site GAGCTGCCTAA),0.049
17,AAGGAACCTTGGGTTCTAACCTGTTGCCT (site AAGGAACCTAG),2.59
18,AAGGAACCTTGGGTTCTAACCTGTTGCCT (site CAGGAACCTAG),1.23
19,AAGGAACCTTGGGTTCTAACCTGTTGCCT (site GAGGAACCTAG),0.951
20,AAGGAACCTTGGGTTCTAACCTGTTGCCT (site TAGGAACCTAG),2.11
21,AAGGAGACTTGGGTTCTAACCTGTTGCCT (site AAAGGGACTAG),0.116

row,Sequence,recombinant barcode read abundance (log10)
1,AAGGAGACTTGGGTTCTAACCTGTTGCCT (site AAGGAGACTAG),2.12
2,AAGGCTTCTTGGGTTCTAACCTGTTGCCT (site AAGGCTACTAG),0.171
3,AAGGCTTCTTGGGTTCTAACCTGTTGCCT (site AAGGCTTCTAG),1.4
4,AAGGGGTCTTGGGTTCTAACCTGTTGCCT (site AAGGGGTCTAG),2.93
5,AAGGGGTCTTGGGTTCTAACCTGTTGCCT (site TACGGGTCTAG),0.112
6,AAGGTCCCTTGGGTTCTAACCTGTTGCCA (site AAGGTCCCTTG),1.85
7,AAGGTCCCTTGGGTTCTAACCTGTTGCCA (site AAGGTTCCTTA),0.0911
8,AAGTCGTCTTGGGTTCTAACCTGTTGCCT (site AAGTCGTCTAG),0.832
9,AAGTCGTCTTGGGTTCTAACCTGTTGCCT (site ACGTCGTCTAG),0.0906
10,AAGTCGTCTTGGGTTCTAACCTGTTGCCT (site AGGTCGTCTAG),0.126
11,AAGTCGTCTTGGGTTCTAACCTGTTGCCT (site ATGTCGTCTAG),0.0249
12,AAGTCGTCTTGGGTTCTAACCTGTTGCTA (site AAGTCGTCTTA),0.857
13,AAGTCGTCTTGGGTTCTAACCTGTTGCTA (site GCAATTGCTAG),0.132
14,AAGTGCTCTTGGGTTCTAACCTGTTGCCG (site AAGTGCTCTCG),1.89
15,AAGTGCTCTTGGGTTCTAACCTGTTGCCG (site AGGTGCCCTCG),0.0892
16,AAGTTTCCTTGGGTTCTAACCTGTTGCAT (site AAGTGTCCTAT),0.118
17,AAGTTTCCTTGGGTTCTAACCTGTTGCAT (site AAGTTTCCTAT),0.22
18,AATAACTCTTGGGTTCTAACCTGTTGCCT (site AATAACTCTAG),0.863
19,AATAACTCTTGGGTTCTAACCTGTTGCCT (site CATAACTCTAG),0.0701
20,AATAACTCTTGGGTTCTAACCTGTTGCCT (site GATAACTCTAG),0.111
